{"source": "patent US11214594B2", "about": "“Antimicrobial peptide having synergistic antibacterial effect with antibiotics on multidrug resistant bacteria, and use thereof” (priority 2016, dated 2022)", "key": {"E. coli": {"test_system": "E. coli", "test": "MIC of antibiotic during combined treatment with antimicrobial peptide", "format": "cell-based, Escherichia coli", "conditions": "for Antibiotic MIC, Erythromycin / Antibiotic MIC, Linezolid / Antibiotic MIC, Vancomycin: E. coli", "method_in_brief": "(§1)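 MIC values for mixed peptide plus antibiotic solutions were measured in MH medium.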"}, "P. aeruginosa": {"test_system": "P. aeruginosa", "test": "microbe, parasite or virus in culture", "format": "cell-based, Pseudomonas aeruginosa", "method_in_brief": "(§2)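 MIC read-out = lowest peptide level with no bacterial proliferation. Strains diluted in MH medium to 2×10^6 CFU; peptide twofold serial dilutions in MH added 1:1 in microtiter wells.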"}, "MDRAB 12035": {"test_system": "MDRAB 12035", "test": "MIC of antimicrobial peptide during combined treatment with antibiotic", "format": "cell-based, Acinetobacter baumannii", "method_in_brief": "(§3)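 Antibiotic MIC came from antibiotic dilutions added to bacteria (2×10^6 CFU/ml, MH medium) already combined with peptide serially diluted 2:1 from its own MIC. Swapping the roles of the two agents gave the peptide MIC.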"}, "A. baumannii [1]": {"test_system": "A. baumannii", "test": "MIC of antimicrobial peptide during combined treatment with antibiotic", "format": "cell-based, Acinetobacter baumannii", "method_in_brief": "as §3"}, "S. epidermidis": {"test_system": "S. epidermidis", "test": "microbe, parasite or virus in culture", "format": "cell-based, Staphylococcus epidermidis", "method_in_brief": "as §2"}, "MDRST 8009": {"test_system": "MDRST 8009", "format": "cell-based, Salmonella typhimurium", "conditions": "agent alone", "method_in_brief": "as §2"}, "A. baumannii [2]": {"test_system": "A. baumannii", "test": "MIC of antibiotic during combined treatment with antimicrobial peptide", "format": "cell-based, Acinetobacter baumannii", "conditions": "A. baumannii", "method_in_brief": "as §1"}, "[3]": {"conditions": "erythromycin 4 μg/ml (Conc./MIC 1/8)"}, "[4]": {"conditions": "erythromycin 8 μg/ml (Conc./MIC 1/4)"}, "[5]": {"conditions": "erythromycin 16 μg/ml (Conc./MIC 1/2)"}, "[6]": {"conditions": "erythromycin 32 μg/ml (Conc./MIC 1)"}, "[7]": {"conditions": "vancomycin 512 μg/ml (Conc./MIC 1/2)"}, "[8]": {"conditions": "vancomycin 1024 μg/ml (Conc./MIC 1)"}, "[9]": {"conditions": "combined with peptide at 1 μg/ml"}, "[10]": {"conditions": "combined with peptide at 2 μg/ml"}}, "note": "Where a SMILES comes first, the peptide text is derived from it. [ ]: non-standard residue; d: D form.", "data": [{"compound": "CC[C@H](C)[C@H](NC(=O)[C@H](CCCCN)NC(=O)[C@H](Cc1c[nH]c2ccccc12)NC(=O)[C@@H](N)CCCNC(=N)N)C(=O)N[C@@H](Cc1ccccc1)C(=O)N[C@@H](CCCCN)C(=O)N[C@@H](CCCCN)C(=O)N[C@H](C(=O)N[C@H](CCCCN)C(=O)N[C@@H](CCCCN)C(=O)N[C@@H](CC(C)C)C(=O)N[C@@H](CC(C)C)C(=O)N[C@@H](Cc1c[nH]cn1)C(=O)N[C@@H](CO)C(=O)N[C@@H](Cc1ccccc1)C(=O)N[C@@H](CCCCN)C(=O)N[C@@H](CCCCN)C(=O)N[C@@H](Cc1ccccc1)C(N)=O)[C@@H](C)CC", "note": "[PapMA-15, RWK IFK KIk KLL HSF KKF-NH2] (H-RWKIFKKI[dK]KLLHSFKKF-NH2; N-terminus assumed)", "values": [{"measurement": "Synergistic effect of antibacterial activity with existing antibiotics compared with PapMA-1", "setting": "E. coli; E. coli and MDREC1229", "result": "level similar to that of the PapMA-1 peptide"}, {"measurement": "Antibiotic MIC, Erythromycin", "setting": "E. coli; erythromycin combined with peptide at 1 μg/ml", "result": 64, "unit": "µg/mL"}, {"measurement": "Antibiotic MIC, Erythromycin", "setting": "E. coli; erythromycin combined with peptide at 2 μg/ml", "result": 32, "unit": "µg/mL"}, {"measurement": "Antibiotic MIC, Erythromycin", "setting": "E. coli; erythromycin combined with peptide at 4 μg/ml", "result": 16, "unit": "µg/mL"}, {"measurement": "Antibiotic MIC, Erythromycin", "setting": "E. coli; erythromycin combined with peptide at 6 μg/ml", "result": 2, "unit": "µg/mL"}, {"measurement": "Antibiotic MIC, Erythromycin", "setting": "E. coli; erythromycin combined with peptide at 8 μg/ml", "result": 1, "unit": "µg/mL"}, {"measurement": "Antibiotic MIC, Erythromycin", "setting": "E. coli; erythromycin combined with peptide at 16 μg/ml", "result": 0.25, "unit": "µg/mL"}, {"measurement": "Antibiotic MIC, Erythromycin", "setting": "E. coli; erythromycin combined with peptide at 32 μg/ml", "result": 0, "unit": "µg/mL"}, {"measurement": "Antibiotic MIC, Erythromycin", "setting": "E. coli; erythromycin combined with peptide at 64 μg/ml", "result": 0, "unit": "µg/mL"}, {"measurement": "Antibiotic MIC, Linezolid", "setting": "E. coli; linezolid combined with peptide at 1 μg/ml", "result": ">128", "unit": "µg/mL"}, {"measurement": "Antibiotic MIC, Linezolid", "setting": "E. coli; linezolid combined with peptide at 2 μg/ml", "result": 128, "unit": "µg/mL"}, {"measurement": "Antibiotic MIC, Linezolid", "setting": "E. coli; linezolid combined with peptide at 4 μg/ml", "result": 32, "unit": "µg/mL"}, {"measurement": "Antibiotic MIC, Linezolid", "setting": "E. coli; linezolid combined with peptide at 6 μg/ml", "result": 16, "unit": "µg/mL"}, {"measurement": "Antibiotic MIC, Linezolid", "setting": "E. coli; linezolid combined with peptide at 8 μg/ml", "result": 16, "unit": "µg/mL"}, {"measurement": "Antibiotic MIC, Linezolid", "setting": "E. coli; linezolid combined with peptide at 16 μg/ml", "result": 8, "unit": "µg/mL"}, {"measurement": "Antibiotic MIC, Linezolid", "setting": "E. coli; linezolid combined with peptide at 32 μg/ml", "result": 0, "unit": "µg/mL"}, {"measurement": "Antibiotic MIC, Linezolid", "setting": "E. coli; linezolid combined with peptide at 64 μg/ml", "result": 0, "unit": "µg/mL"}, {"measurement": "Antibiotic MIC, Vancomycin", "setting": "E. coli; vancomycin combined with peptide at 1 μg/ml", "result": ">128", "unit": "µg/mL"}, {"measurement": "Antibiotic MIC, Vancomycin", "setting": "E. coli; vancomycin combined with peptide at 2 μg/ml", "result": ">128", "unit": "µg/mL"}, {"measurement": "Antibiotic MIC, Vancomycin", "setting": "E. coli; vancomycin combined with peptide at 4 μg/ml", "result": ">128", "unit": "µg/mL"}, {"measurement": "Antibiotic MIC, Vancomycin", "setting": "E. coli; vancomycin combined with peptide at 6 μg/ml", "result": 64, "unit": "µg/mL"}, {"measurement": "Antibiotic MIC, Vancomycin", "setting": "E. coli; vancomycin combined with peptide at 8 μg/ml", "result": 32, "unit": "µg/mL"}, {"measurement": "Antibiotic MIC, Vancomycin", "setting": "E. coli; vancomycin combined with peptide at 16 μg/ml", "result": 16, "unit": "µg/mL"}, {"measurement": "Antibiotic MIC, Vancomycin", "setting": "E. coli; vancomycin combined with peptide at 32 μg/ml", "result": 0, "unit": "µg/mL"}, {"measurement": "Antibiotic MIC, Vancomycin", "setting": "E. coli; vancomycin combined with peptide at 64 μg/ml", "result": 0, "unit": "µg/mL"}, {"measurement": "Minimal inhibitory concentration MIC", "setting": "P. aeruginosa", "result": 32, "unit": "µg/mL"}, {"measurement": "Peptide MIC during treatment with erythromycin", "setting": "MDRAB 12035; [3]", "result": 4, "unit": "µg/mL"}, {"measurement": "Peptide MIC during treatment with erythromycin", "setting": "MDRAB 12035; [4]", "result": 4, "unit": "µg/mL"}, {"measurement": "Peptide MIC during treatment with erythromycin", "setting": "MDRAB 12035; [5]", "result": 4, "unit": "µg/mL"}, {"measurement": "Peptide MIC during treatment with erythromycin", "setting": "MDRAB 12035; [6]", "result": 0, "unit": "µg/mL"}, {"measurement": "Peptide MIC during treatment with linezolid", "setting": "MDRAB 12035; linezolid 64 μg/ml (Conc./MIC 1/8)", "result": 4, "unit": "µg/mL"}, {"measurement": "Peptide MIC during treatment with linezolid", "setting": "MDRAB 12035; linezolid 512 μg/ml (Conc./MIC 1)", "result": 0, "unit": "µg/mL"}, {"measurement": "Peptide MIC during treatment with linezolid", "setting": "MDRAB 12035; linezolid […] (Conc./MIC 1/2)", "result": 1, "unit": "µg/mL"}, {"measurement": "Peptide MIC during treatment with linezolid", "setting": "MDRAB 12035; linezolid […] (Conc./MIC 1/4)", "result": 4, "unit": "µg/mL"}, {"measurement": "Peptide MIC during treatment with vancomycin", "setting": "MDRAB 12035; [7]", "result": 2, "unit": "µg/mL"}, {"measurement": "Peptide MIC during treatment with vancomycin", "setting": "MDRAB 12035; [8]", "result": 1, "unit": "µg/mL"}, {"measurement": "Peptide MIC during treatment with vancomycin", "setting": "MDRAB 12035; vancomycin […] (Conc./MIC 1/4)", "result": 2, "unit": "µg/mL"}, {"measurement": "Peptide MIC during treatment with vancomycin", "setting": "MDRAB 12035; vancomycin […] (Conc./MIC 1/8)", "result": 4, "unit": "µg/mL"}, {"measurement": "Peptide MIC during treatment with antibiotic", "setting": "A. baumannii [1]; [3]", "result": 4, "unit": "µg/mL"}, {"measurement": "Peptide MIC during treatment with antibiotic", "setting": "A. baumannii [1]; [4]", "result": 4, "unit": "µg/mL"}, {"measurement": "Peptide MIC during treatment with antibiotic", "setting": "A. baumannii [1]; [5]", "result": 4, "unit": "µg/mL"}, {"measurement": "Peptide MIC during treatment with antibiotic", "setting": "A. baumannii [1]; [6]", "result": 0, "unit": "µg/mL"}, {"measurement": "Peptide MIC during treatment with antibiotic", "setting": "A. baumannii [1]; linezolid 32 μg/ml (Conc./MIC 1/8)", "result": 8, "unit": "µg/mL"}, {"measurement": "Peptide MIC during treatment with antibiotic", "setting": "A. baumannii [1]; linezolid 64 μg/ml (Conc./MIC 1/4)", "result": 4, "unit": "µg/mL"}, {"measurement": "Peptide MIC during treatment with antibiotic", "setting": "A. baumannii [1]; linezolid […] (Conc./MIC 1)", "result": 0, "unit": "µg/mL"}, {"measurement": "Peptide MIC during treatment with antibiotic", "setting": "A. baumannii [1]; linezolid […] (Conc./MIC 1/2)", "result": 2, "unit": "µg/mL"}, {"measurement": "Peptide MIC during treatment with antibiotic", "setting": "A. baumannii [1]; [7]", "result": 0.25, "unit": "µg/mL"}, {"measurement": "Peptide MIC during treatment with antibiotic", "setting": "A. baumannii [1]; [8]", "result": 0, "unit": "µg/mL"}, {"measurement": "Peptide MIC during treatment with antibiotic", "setting": "A. baumannii [1]; vancomycin […] (Conc./MIC 1/4)", "result": 0.5, "unit": "µg/mL"}, {"measurement": "Peptide MIC during treatment with antibiotic", "setting": "A. baumannii [1]; vancomycin […] (Conc./MIC 1/8)", "result": 2, "unit": "µg/mL"}, {"measurement": "Minimal inhibitory concentration MIC", "setting": "S. epidermidis", "result": ">128", "unit": "µg/mL"}, {"measurement": "Minimal inhibitory concentration MIC", "setting": "MDRST 8009", "result": 64, "unit": "µg/mL"}, {"measurement": "Antibiotic MIC, Erythromycin", "setting": "A. baumannii [2]; [9]", "result": 32, "unit": "µg/mL"}, {"measurement": "Antibiotic MIC, Linezolid", "setting": "A. baumannii [2]; [9]", "result": ">128", "unit": "µg/mL"}, {"measurement": "Antibiotic MIC, Vancomycin", "setting": "A. baumannii [2]; [9]", "result": ">128", "unit": "µg/mL"}, {"measurement": "Antibiotic MIC, Erythromycin", "setting": "A. baumannii [2]; [10]", "result": 32, "unit": "µg/mL"}, {"measurement": "Antibiotic MIC, Linezolid", "setting": "A. baumannii [2]; [10]", "result": 128, "unit": "µg/mL"}, {"measurement": "Antibiotic MIC, Vancomycin", "setting": "A. baumannii [2]; [10]", "result": 128, "unit": "µg/mL"}, {"measurement": "Antibiotic MIC, Erythromycin", "setting": "A. baumannii [2]; combined with peptide at 4 μg/ml", "result": 16, "unit": "µg/mL"}]}]}
